Numbers after ± are expanded uncertainties.
Details: Liquid; for Critical pressure: Direct measurement; for Normal boiling temperature: Ebulliometric method (Recirculating still); for Critical temperature: Visual observation in a stirred cell

Row | Structure (SMILES) | Critical pressure [kPa] | Normal boiling temperature [°C] | Critical temperature [K]
1 | Cc1cccc2ccccc12 [1-methylnaphthalene] | 3540 ± 220 | 244.6 ± 0.2 | 773 ± 16
2 | Cc1ccc2ccccc2c1 [2-methylnaphthalene] | 3300 ± 200 | 241.1 ± 0.2 | 755 ± 16
3 | CCc1ccc2ccccc2c1 [2-ethylnaphthalene] | 2790 ± 160 | 254.1 ± 0.2 | 763 ± 16
4 | Cc1ccc(C)c2ccccc12 [1,4-dimethylnaphthalene] | 2790 ± 160 | 265.1 ± 0.2 | 778 ± 16
5 | Cc1cc(C)c2ccccc2c1 [1,3-dimethylnaphthalene] | 2740 ± 160 | 265.1 ± 0.2 | 772 ± 16

Reference: the NIST ThermoML archive (doi:10.1016/j.fluid.2013.08.041)
